# Publication PMC11982498 (Redox Biology, 2025)
# What was measured:
# [1] = tested on: SH-SY5Y cells; assay: JC-1 / Mito-tracker / H2DCFDA / Ca2+ staining in Aβ1-42 induced cell model; format: cell-based; conditions: 25 μM Aβ1-42 induced model
# Protocol: SH-SY5Y cells were plated on 96 well plates. After 24h treatment with or without B14 in 25 μM Aβ1-42 induced cell model, the cells were washed for three times with cold PBS. Then cells were incubated with Hoechst 33342 solution (Sigma, 10 μg/mL) and H2DCFDA probe (10 μM, sigma), as well as Mito-tracker deep red (100 nM, sigma) for 10 min at 37 °C in the dark. All the samples were photographed by using FV3000 (Olympus). SH-SY5Y cells were plated on 6 well plates. After 24h treatment with B14 in 25 μM Aβ1-42 induced cell model, cells were incubated with JC-1 (5 μg/mL, sigma) for 30 min at 37 °C in the dark. Fluorescence detection was carried out by using EVOS FL Auto.
# [2] = tested on: GFAP, Iba-1, NF-κB, TNF-α and IL-6 in hippocampus of APP/PS1 mice; assay: Neuroinflammation markers in hippocampus; format: in vivo
# Protocol: (§1) Protein samples (25–40 μg) were separated using 10 % SDS-PAGE and subsequently transferred onto PVDF membranes (0.22 μm, Servicebio, Guangzhou, China) via electro transfer. Following blocking with TBST solution (Servicebio, Guangzhou, China) containing 5 % BSA (Solarbio, Beijing, China) for approximately 60 min at room temperature, the membrane was exposed to various primary antibodies overnight at 4 °C on a rotating shaker. Then, the membranes were incubated with HRP-conjugated secondary antibody (Affinity, Changzhou, China) for 2 h. Protein bands were then detected using an ECL kit. The signal intensity of each target protein was quantified using Image J 1.8.0 software (Bio-Rad Laboratories, California, USA).
# (§2) Five months old male APP/PS1 mice, weighing 25–33 g, were purchased from Guangdong Medical Laboratory Animal Center and housed in the Laboratory Animal Center of Sun Yat-sen University (Guangzhou, China) for experimentation. All procedures were approved by the Animal Care and Use Committee of Sun Yat-sen University and complied with legal requirements and national guidelines for the care and maintenance of laboratory animals (Approval No. SYSU-IACUC-2024-002032). The mice were housed in a specific pathogen-free environment with a controlled temperature of 22 ± 1 °C and a 12-h dark/light cycle. […]
# [3] = tested on: APP/PS1 transgenic mice; assay: Nest building test (NBT); format: in vivo; conditions: B14 10, 20, 40 mg/kg i.p. every other day
# Source text: as §2, with “cycle. The mice were fed with a standard diet, and 30 mice were randomly divided into 6 groups (N = 5). Compound B14 was dissolved in saline and administered at doses of 10, 20, or 40 mg/kg.” for “cycle.”
# The spatial memory and learning abilities of the mice were assessed using Morris water maze (MWM), novel object recognition (NOR) and nesting experiments (NBT). The anxiety and depressive behaviors were evaluated through the open field test (OFT) and elevated plus maze (EPM). […]
# The nest building test (NBT) assesses fine motor dexterity, cognitive function, and emotional states in mice while minimizing stress. […] After this period, photographs were taken of the paper sheets, and the nests built by the mice were scored.
# [4] = tested on: BCL-2, BAX, Cyto-C, Cleaved-caspase 9, Cleaved-caspase 3 in hippocampus of APP/PS1 mice; assay: Western blot and immunofluorescence of apoptosis related factors in hippocampus; format: in vivo; conditions: B14 10, 20, 40 mg/kg i.p. every other day
# Protocol: as §1, §2
# [5] = tested on: VEGF gene transcription in SH-SY5Y cells; assay: Real-time RT-PCR in SH-SY5Y cells, VEGF; format: cell-based, human
# Protocol: SH-SY5Y cells were treated with or without B14, and total RNA was subsequently isolated and purified. Reverse transcription was performed using a cDNA synthesis kit. The relative transcription levels of the genes were evaluated through quantitative real-time PCR using the SYBR Green-based method, as described in the Supplementary Date. Details regarding the primer sequences and the raw data can be found in Table S7 and Table S8.
# ^a -∆∆Ct = -[(Ct value of genes in treated sample - Ct value of genes in control) - (Ct value of β-actin in treated sample - Ct value of β-actin in control)]. ^b F: The relative expression fold.
# Experiment 1: SH-SY5Y cells were treated with different concentration of B14. The Ct values of BAX, VEGF, CMYC and BCL-2 were obtained.
# Total RNA was extracted from cells and mice liver tissue using RNAiso Plus (Takara, 9109, Japan). Following sample homogenization, chloroform was added, and the solution was allowed to have phase separation into an upper aqueous layer (containing RNA), an interphase, and a lower organic layer (containing DNA and proteins). RNA was precipitated from the aqueous phase using isopropanol, while DNA was precipitated from the aqueous-organic interphase using ethanol. Complementary DNA (cDNA) was synthesized using the One-Step RT-PCR Kit (Takara, Cat#639503, Japan).
# Quantitative real-time polymerase chain reaction (qRT-PCR) was performed using the 2× RealStar SYBR Mixture (GenStar, Cat# A301-10, Guangzhou, China) on a LightCycler 480 II real-time PCR system (Roche, USA). Data were analyzed using the 2^−ΔΔCt method. Actin served as the internal control, and relative mRNA levels were normalized accordingly.
# [6] = target: T1, Aβ1-42 (Homo sapiens, UniProt P05067); assay: Transmission electron microscopy of Aβ1-42 fibrils; format: biochemical; conditions: 20 μM compound, 72 h
# T1 construct: Aβ1-42 was purchased from Gill Biochemicals Ltd (Shanghai, China); purchased Gill Biochemicals Ltd (Shanghai, China)
# Protocol: (§3) TEM experiment was carried out following a published method without significant modification, and the Aβ1-42 solution (100 μM) was co-incubated with B14 (20 μM) or Curcumin (20 μM) at 37 °C for 72h. The samples were dropped to a carbon-coated grid, stained with 2 % phosphotungstic acid, and then dried at room temperature. The morphology of Aβ1-42 fiber was observed on a JEM-1200EX II transmission electron microscope (Jeol, Japan).
# as §3, with “The” for “TEM experiment was carried out following a published method without significant modification, and the”, “B14 solution” for “B14”, “2%” for “2 %”
# T1 sequence (P05067 672-713 limits assumed): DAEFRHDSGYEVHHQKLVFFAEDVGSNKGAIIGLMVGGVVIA
smiles,measurement,setting,value
O=C(CCN1CCOCC1)Nc1ccc2c(c1)c(=O)c1cc(NC(=O)CCN3CCOCC3)ccc1n2-c1ccc2occc2c1 [Compound B14],intracellular Ca^2+ (Fluo-5AM),[1],could modulate aberrantly metabolized Ca^2+ in model cells in a dose-dependent manner
same,oxidative stress (H2DCFDA) and mitochondrial number (MitoTracker),[1],could attenuate oxidative stress without changing mitochondrial number
same,"red/green fluorescence intensity ratio (JC-1, mitochondrial membrane potential)",[1],could reduce the occurrence of early apoptosis
same,activation of astrocytes (GFAP) and microglia (Iba-1),[2],reduce the activations of astrocytes
same,expressions of inflammatory factors,[2],"decrease the expressions of the inflammatory factors NF-κB, TNF-α and IL-6"
same,nesting scores (NBT),[3],significantly improved
same,expression level of BCL-2 in hippocampus,[4],effectively increased the expression level of BCL-2
same,expression levels of pro-apoptotic factors in hippocampus,[4],"decreased the expression levels of BAX, Cyto-C, Cleaved-caspase 9 and Cleaved-caspase 3"
same,"-∆∆Ct, VEGF",[5]; 6.25 μM B14,-0.01
same,"F = 2^-∆∆Ct (relative expression fold), VEGF",[5]; 6.25 μM B14,1.00
same,"-∆∆Ct, VEGF",[5]; 12.5 μM B14,-0.01
same,"F = 2^-∆∆Ct (relative expression fold), VEGF",[5]; 12.5 μM B14,1.00
same,"-∆∆Ct, VEGF",[5]; 25 μM B14,-0.03
same,"F = 2^-∆∆Ct (relative expression fold), VEGF",[5]; 25 μM B14,1.02
same,ultrastructure of Aβ1-42 fibers (TEM),[6],formation of protofibrils or amorphous oligomers was significantly reduced
